We go through one compound from patent US20240050431A1, “NEUROENDOCRINE DIFFERENTIATION IN IMIPRIDONE CANCER TREATMENT” (BROWN UNIVERSITY, priority 2022, published 2024).

For data set [1], the system named is DU145. In words: CellTiter-Glo (CTG) viability assay, DU145. Format: cell-based. The conditions noted are these: Homo sapiens, DU-145, 72 h. (ATP-based viability assays read luminescence as a measure of living cells.)
For data set [2], the system named is PC3. The experiment in a line: CellTiter-Glo (CTG) viability assay, PC3. The conditions noted are these: Homo sapiens, PC-3, 72 h. Format: cell-based.
Data set [3] has as its system LNCaP. In words: CellTiter-Glo (CTG) viability assay, LNCaP. It is filed as cell-based. The note with it: Homo sapiens, 72 h.
Data set [4] concerns DU145. In words: Protein expression of TRAIL pathway proteins, DU145. Format: cell-based. The conditions noted are these: DU145 treated with ONC201 at IC50; 12, 24 and 48 hours. The text has this:
FIGS. 2A-2C provide images showing NED marker expression in PC and SCLC.

For data set [5], the system named is 22RV1. The experiment in a line: Protein expression of TRAIL pathway proteins, 22RV1. Format: cell-based. The note with it: 22RV1 treated with ONC201 at IC50; 12, 24 and 48 hours.
For data set [6], the system named is tumor cell lines (n=6) from prostate and small cell lung cancer tissues. In words: CellTiter-Glo (CTG) viability assay, panel of tumor cell lines. The conditions noted are these: 6 PC and SCLC cell lines; varying drug concentrations, 72 hours.

One may read the IC50 as the concentration that inhibits the measured activity by half. A higher IC50 goes with a need for much substance. Take `Cc1ccccc1CN1C(=O)C2=C(CCN(Cc3ccccc3)C2)N2CCN=C12` [ONC201]: the IC50 amounted to 3.11 µM in data set [1], 3.02 µM in data set [2] and 1.33 µM in data set [3]. Besides, the ATF4 protein expression result in data set [4] and in data set [5] was “upregulation of ATF4 ISR pathway” throughout. The CLpX protein expression result in data set [4] and in data set [5] was “decreased CLpX expression” in each case. The “Sensitivity and cytotoxicity (viability)” value in data set [6] was “shows sensitivity and cytotoxicity to tumor cell lines”.
